According to patent publication US9023789B2, “Amylin analogs and pharmaceutical compositions thereof” (Novo Nordisk A/S, priority 2012, dated 2015):
Numbered stars: 1 amine (or outer) side, 2 acyl side, 3 side chain; on linkers, the order of the positions; unused ones are H or OH. Bridge positions count the residues as written; N and C are the ends. Side chains are listed from the residue outwards. Peptide text beside a SMILES is read from it. * marks the point of attachment. C20 diacid = O=C(O)CCCCCCCCCCCCCCCCCCC(=O)*; γGlu = O=C(O)[C@H](CCC(=O)[*:2])N[*:1]; AEEA = NCCOCCOCC(=O)O

Key:
[1] = biological target: T1, human calcitonin receptor (Homo sapiens, UniProt P30988); test: ASSAY (VII) binding to the human calcitonin receptor (SPA, 125I-Calcitonin); conditions: read-out: hCTR bind IC50;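 note: cell membranes (35 ng/µL) combined with SPA beads in 40 µL of pH 7.4 Hepes buffer, 384-well format, signal counted on a TopCounter instrument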
T1 construct: expressed in transfected cells
T1 sequence (P30988 25-474): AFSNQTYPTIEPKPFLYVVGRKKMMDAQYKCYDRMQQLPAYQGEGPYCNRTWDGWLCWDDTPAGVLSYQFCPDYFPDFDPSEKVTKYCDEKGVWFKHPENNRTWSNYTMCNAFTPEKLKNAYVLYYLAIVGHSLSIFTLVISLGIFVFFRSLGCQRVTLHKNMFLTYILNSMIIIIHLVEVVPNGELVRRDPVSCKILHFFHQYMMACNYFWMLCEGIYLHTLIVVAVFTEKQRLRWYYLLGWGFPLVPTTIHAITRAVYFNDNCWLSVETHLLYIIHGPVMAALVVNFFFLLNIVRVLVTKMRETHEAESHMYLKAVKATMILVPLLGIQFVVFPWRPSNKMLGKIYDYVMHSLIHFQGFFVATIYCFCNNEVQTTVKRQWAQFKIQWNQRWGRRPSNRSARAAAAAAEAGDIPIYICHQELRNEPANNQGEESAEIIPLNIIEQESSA

[2] = ASSAY (III) ThT fibrillation assay for physical stability; format: physicochemical
In short: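 Physical stability scored by ThT fluorescence (444 nm excitation, 485 nm emission) tracked every 20 min during 37 °C incubation with 960 rpm shaking, ThT at 1 μM final. Values are replicate means with SD at chosen times; HPLC against pramlintide standard gives initial and post-assay soluble concentrations.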

[3] = biological target: T2, human calcitonin (a) receptor in BHK570 cells (Homo sapiens, UniProt P30988); test: ASSAY (II)a functional assay, human calcitonin receptor (CRE luciferase); format: cell-based; conditions: read-out: hCTR funct. EC50
T2 construct: expressed in transfected cells
T2 sequence (P30988 25-474): T1 sequence (P30988 25-474)
In short: (§1)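 Readout is luminescence from a cAMP-responsive CRE-luc reporter, developed with LucLite for 30 min at room temperature. Cells were treated for 3 h at 37 °C in 10% FBS/DMEM buffered with 10 mM Hepes (pH 7.4).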

[4] = biological target: T3, human amylin 3(a) receptor (human calcitonin receptor + RAMP-3) in BHK570 cells (Homo sapiens, UniProt O60896+P30988); test: ASSAY (II)a functional assay, human amylin receptor (CRE luciferase); format: cell-based; conditions: for EC50: human amylin receptor functional potency, assay (II), read-out: hAmylin-R funct. EC50
T3 construct: expressed in transfected cells
In short: as §1

[5] = hCTR funct. EC50 divided by hAmylin-R funct. EC50
[6] = hCTR funct. EC50 over hAmylin-R funct. EC50
[7] = human functional selectivity: hCTR funct. EC50 / hAmylin-R funct. EC50

T3 sequence (O60896 24-148, one chain of several): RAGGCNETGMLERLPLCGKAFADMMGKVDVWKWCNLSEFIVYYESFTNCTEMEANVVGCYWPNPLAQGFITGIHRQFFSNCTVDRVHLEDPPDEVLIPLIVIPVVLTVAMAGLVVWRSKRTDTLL

SMILES	IC50 [1] [nM]	ThT pH 4.0 lag time (h) [2] [h]	EC50 [3] [nM]	Ratio hCT/hAmylin funct. [4, 5]	Ratio hCT/hAmylin funct. [4, 6]	EC50 [4] [nM]	Ratio hCT/hAmylin funct. [4, 7]	Ratio hCT/hAmylin funct. ([4]; hCTR funct. EC50 / hAmylin-R funct. EC50)
CC[C@H](C)[C@H](NC(=O)[C@H](C)NC(=O)CNC(=O)[C@H](Cc1ccccc1)NC(=O)[C@H](CC(N)=O)NC(=O)[C@@H]1CCCN1C(=O)[C@H](CO)NC(=O)[C@H](CO)NC(=O)[C@H](Cc1c[nH]cn1)NC(=O)[C@H](CCCNC(=N)N)NC(=O)[C@H](CC(C)C)NC(=O)[C@H](Cc1ccccc1)NC(=O)[C@H](CC(N)=O)NC(=O)[C@H](C)NC(=O)[C@H](CC(C)C)NC(=O)[C@H](CCCNC(=N)N)NC(=O)[C@H](CCC(N)=O)NC(=O)[C@@H](NC(=O)[C@H](C)NC(=O)[C@@H]1CSSC[C@H](NC(=O)[C@@H](N)CCCCNC(=O)COCCOCCNC(=O)COCCOCCNC(=O)CC[C@H](NC(=O)CCCCCCCCCCCCCCCCCCC(=O)O)C(=O)O)C(=O)N[C@@H](CC(N)=O)C(=O)N[C@@H]([C@@H](C)O)C(=O)N[C@@H](C)C(=O)N[C@@H]([C@@H](C)O)C(=O)N1)[C@@H](C)O)C(=O)N1CCC[C@H]1C(=O)N[C@@H](CO)C(=O)N[C@@H](CO)C(=O)N[C@H](C(=O)N[C@@H](CC(N)=O)C(=O)N[C@H](C(=O)NCC(=O)N[C@@H](CCCNC(=N)N)C(=O)N[C@@H](CC(N)=O)C(=O)N[C@H](C(=O)N[C@@H](Cc1ccc(O)cc1)C(N)=O)[C@@H](C)O)C(C)C)[C@@H](C)O [Example 95] (H-K([AEEA-AEEA-γGlu-C20 diacid])CNTATCATQRLANFLRHSSPNFGAIPSSTNVGRNTY-NH2; disulfide 2-7 (inferred); N-terminus assumed)	61.3	37	21.5	33.0	33.0	0.651	33.0	
CC[C@H](C)[C@H](NC(=O)[C@H](C)NC(=O)CNC(=O)[C@H](Cc1ccccc1)NC(=O)[C@H](CC(N)=O)NC(=O)[C@@H]1CCCN1C(=O)[C@H](CO)NC(=O)[C@H](CO)NC(=O)[C@H](Cc1c[nH]cn1)NC(=O)[C@H](CCCNC(=N)N)NC(=O)[C@H](CC(C)C)NC(=O)[C@H](Cc1ccccc1)NC(=O)[C@H](CCC(=O)O)NC(=O)[C@H](C)NC(=O)[C@H](CC(C)C)NC(=O)[C@H](CCCNC(=N)N)NC(=O)[C@H](CCC(N)=O)NC(=O)[C@@H](NC(=O)[C@H](C)NC(=O)[C@@H]1CSSC[C@H](NC(=O)[C@H](CCCCN)NC(=O)CC[C@H](NC(=O)CC[C@H](NC(=O)CCCCCCCCCCCCCCCCCCC(=O)O)C(=O)O)C(=O)O)C(=O)N[C@@H](CC(N)=O)C(=O)N[C@@H]([C@@H](C)O)C(=O)N[C@@H](C)C(=O)N[C@@H]([C@@H](C)O)C(=O)N1)[C@@H](C)O)C(=O)N1CCC[C@H]1C(=O)N[C@@H](CO)C(=O)N[C@@H](CO)C(=O)N[C@H](C(=O)N[C@@H](CC(N)=O)C(=O)N[C@H](C(=O)NCC(=O)N[C@@H](CO)C(=O)N[C@@H](CC(N)=O)C(=O)N[C@H](C(=O)N[C@@H](Cc1ccc(O)cc1)C(N)=O)[C@@H](C)O)C(C)C)[C@@H](C)O [Example 15] ({C20 diacid-γGlu-γGlu}-KCNTATCATQRLAEFLRHSSPNFGAIPSSTNVGSNTY-NH2; disulfide 2-7 (inferred))	15.5	45	3.43	8.9	8.9	0.386	8.9	
CC[C@H](C)[C@H](NC(=O)[C@H](C)NC(=O)CNC(=O)[C@H](Cc1ccccc1)NC(=O)[C@H](CC(N)=O)NC(=O)[C@@H]1CCCN1C(=O)[C@H](CO)NC(=O)[C@H](CO)NC(=O)[C@H](Cc1c[nH]cn1)NC(=O)[C@H](CCCNC(=N)N)NC(=O)[C@H](CC(C)C)NC(=O)[C@H](Cc1ccccc1)NC(=O)[C@H](Cc1c[nH]cn1)NC(=O)[C@H](C)NC(=O)[C@H](CC(C)C)NC(=O)[C@H](CCCNC(=N)N)NC(=O)[C@H](CCC(N)=O)NC(=O)[C@@H](NC(=O)[C@H](C)NC(=O)[C@@H]1CSSC[C@H](NC(=O)[C@@H](N)CCCCNC(=O)CC[C@H](NC(=O)CCCCCCCCCCCCCCCCCCC(=O)O)C(=O)O)C(=O)N[C@@H](CC(N)=O)C(=O)N[C@@H]([C@@H](C)O)C(=O)N[C@@H](C)C(=O)N[C@@H]([C@@H](C)O)C(=O)N1)[C@@H](C)O)C(=O)N1CCC[C@H]1C(=O)N[C@@H](CO)C(=O)N[C@@H](CO)C(=O)N[C@H](C(=O)N[C@@H](CC(N)=O)C(=O)N[C@H](C(=O)NCC(=O)N1CCC[C@H]1C(=O)N[C@@H](CC(N)=O)C(=O)N[C@H](C(=O)N1CCC[C@H]1C(N)=O)[C@@H](C)O)C(C)C)[C@@H](C)O [Example 115] (H-K([γGlu-C20 diacid])CNTATCATQRLAHFLRHSSPNFGAIPSSTNVGPNTP-NH2; disulfide 2-7 (inferred); N-terminus assumed)	0.157	45	0.04	0.8	0.8	0.052	0.8	0.8
CC[C@H](C)[C@H](NC(=O)[C@H](C)NC(=O)CNC(=O)[C@H](Cc1ccccc1)NC(=O)[C@H](CC(N)=O)NC(=O)[C@@H]1CCCN1C(=O)[C@H](CO)NC(=O)[C@H](CO)NC(=O)[C@H](Cc1c[nH]cn1)NC(=O)[C@H](CCCNC(=N)N)NC(=O)[C@H](CC(C)C)NC(=O)[C@H](Cc1ccccc1)NC(=O)[C@H](Cc1c[nH]cn1)NC(=O)[C@H](C)NC(=O)[C@H](CC(C)C)NC(=O)[C@H](CCCNC(=N)N)NC(=O)[C@H](CCC(N)=O)NC(=O)[C@@H](NC(=O)[C@H](C)NC(=O)[C@@H]1CSSC[C@H](NC(=O)[C@@H](N)CCCCNC(=O)COCCOCCNC(=O)CC[C@H](NC(=O)CCCCCCCCCCCCCCCCCCC(=O)O)C(=O)O)C(=O)N[C@@H](CC(N)=O)C(=O)N[C@@H]([C@@H](C)O)C(=O)N[C@@H](C)C(=O)N[C@@H]([C@@H](C)O)C(=O)N1)[C@@H](C)O)C(=O)N1CCC[C@H]1C(=O)N[C@@H](CO)C(=O)N[C@@H](CO)C(=O)N[C@H](C(=O)N[C@@H](CC(N)=O)C(=O)N[C@H](C(=O)NCC(=O)N[C@@H](CCCNC(=N)N)C(=O)N[C@@H](CC(N)=O)C(=O)N[C@H](C(=O)N[C@@H](Cc1ccc(O)cc1)C(N)=O)[C@@H](C)O)C(C)C)[C@@H](C)O [Example 84] (H-K([AEEA-γGlu-C20 diacid])CNTATCATQRLAHFLRHSSPNFGAIPSSTNVGRNTY-NH2; disulfide 2-7 (inferred); N-terminus assumed)	88.9	45	5.49	32.5	32.5	0.169	32.5	
CC[C@H](C)[C@H](NC(=O)[C@H](C)NC(=O)CNC(=O)[C@H](Cc1ccccc1)NC(=O)[C@H](CC(N)=O)NC(=O)[C@@H]1CCCN1C(=O)[C@H](CO)NC(=O)[C@H](CO)NC(=O)[C@H](Cc1c[nH]cn1)NC(=O)[C@H](CCCNC(=N)N)NC(=O)[C@H](CC(C)C)NC(=O)[C@H](Cc1ccccc1)NC(=O)[C@H](CCC(=O)O)NC(=O)[C@H](C)NC(=O)[C@H](CC(C)C)NC(=O)[C@H](CCCNC(=N)N)NC(=O)[C@H](CCC(N)=O)NC(=O)[C@@H](NC(=O)[C@H](C)NC(=O)[C@@H]1CSSC[C@H](NC(=O)[C@@H](N)CCCCNC(=O)CC[C@H](NC(=O)CC[C@H](NC(=O)CCCCCCCCCCCCCCCCCCC(=O)O)C(=O)O)C(=O)O)C(=O)N[C@@H](CC(N)=O)C(=O)N[C@@H]([C@@H](C)O)C(=O)N[C@@H](C)C(=O)N[C@@H]([C@@H](C)O)C(=O)N1)[C@@H](C)O)C(=O)N1CCC[C@H]1C(=O)N[C@@H](CO)C(=O)N[C@@H](CO)C(=O)N[C@H](C(=O)N[C@@H](CC(N)=O)C(=O)N[C@H](C(=O)NCC(=O)N[C@@H](CCCNC(=N)N)C(=O)N[C@@H](CCC(=O)O)C(=O)N[C@H](C(=O)N[C@@H](Cc1ccc(O)cc1)C(N)=O)[C@@H](C)O)C(C)C)[C@@H](C)O [Example 105] (H-K([γGlu-γGlu-C20 diacid])CNTATCATQRLAEFLRHSSPNFGAIPSSTNVGRETY-NH2; disulfide 2-7; N-terminus assumed)	14.1	45	7.43	10.6	10.6	0.703	10.6	
